Experimental data: patent US20240009191A1, “METHOD AND COMPOSITION FOR THE TREATMENT OF DISEASE” (DIMERIX BIOSCIENCE PTY LTD, priority 2019, published 2024)
“Also recorded” adds a separate entry of the source.

Target: T1, AT1R-CXCR2 heteromer (Homo sapiens, UniProt P25025+P30556)
T1 sequence (P30556 1-359): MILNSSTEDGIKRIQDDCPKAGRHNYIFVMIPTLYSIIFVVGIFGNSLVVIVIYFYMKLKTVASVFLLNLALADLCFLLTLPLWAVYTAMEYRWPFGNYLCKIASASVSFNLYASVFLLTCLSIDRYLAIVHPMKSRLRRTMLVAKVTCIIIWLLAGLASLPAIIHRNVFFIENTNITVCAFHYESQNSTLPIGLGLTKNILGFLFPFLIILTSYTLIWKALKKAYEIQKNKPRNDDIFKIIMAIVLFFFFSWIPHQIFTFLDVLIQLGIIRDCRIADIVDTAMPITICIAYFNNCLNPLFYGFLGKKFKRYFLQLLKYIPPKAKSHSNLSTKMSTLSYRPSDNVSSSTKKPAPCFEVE
T1 sequence (P25025 1-360): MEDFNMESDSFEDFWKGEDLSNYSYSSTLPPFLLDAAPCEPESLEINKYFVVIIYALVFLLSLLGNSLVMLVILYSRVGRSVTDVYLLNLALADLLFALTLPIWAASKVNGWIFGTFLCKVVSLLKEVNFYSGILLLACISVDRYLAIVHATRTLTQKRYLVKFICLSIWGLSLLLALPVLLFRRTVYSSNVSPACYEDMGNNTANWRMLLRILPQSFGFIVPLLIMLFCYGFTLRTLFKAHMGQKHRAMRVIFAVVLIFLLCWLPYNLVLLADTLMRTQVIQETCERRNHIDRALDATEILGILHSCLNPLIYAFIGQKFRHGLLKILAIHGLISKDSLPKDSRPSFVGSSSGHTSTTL
Test: BRET trafficking of AT1R/Rluc8 to Venus/Kras or Venus/Rab markers, presence of unlabelled CXCR2
Format: cell-based
Method: HEK293FT cells were seeded in 6-well plates at a density of approximately 700,000 cells/well and maintained at 37° C., 5% CO2 in Complete Media (DMEM containing 0.3 mg/ml glutamine, 100 IU/ml penicillin and 100 μg/ml streptomycin (Gibco/Thermo Fisher)) supplemented with 10% fetal calf serum (FCS; Bovogen). Transient transfections were carried out 24 h after seeding using FuGene6™ (Promega) according to manufacturer instructions. 24 h post-transfection, cells were washed with PBS, detached using 0.05% trypsin/0.53 mM EDTA, resuspended in HEPES-buffered phenol red free Complete Media containing 5% FCS and added to a poly-L-lysine-coated white 96-well microplate (Greiner Bio-One). 48 h post-transfection, bioluminescence resonance energy transfer (BRET) assays were carried out following pre-incubation of cells with EnduRen™ (Promega) at a final concentration of 30 μM, at 37° C., 5% CO2 for 2 h. BRET measurements were taken at 37° C. using the LUMlstar™ or CLARIOstar™ (BMG Labtech). Filtered light emissions were measured for 1 s in each of the ‘donor wavelength window’ (460-490 nm for LUMlstar™ or 410-490 nm for CLARIOstar™) and ‘acceptor wavelength window’ (520-550 nm for LUMlstar™ or 520-620 nm for CLARIOstar™).
The BRET signal observed between interacting proteins is normalized by subtracting the background BRET ratio. This can be done in one of two ways (see Pfleger et al. (2006) Cell Signal 18:1664-1670; Pfleger et al. (2006) Nat Protoc 1:336-344): 1) the ratio of the 520-550 nm or 520-620 nm emission over the 460-490 nm or 410-490 nm emission for a cell sample containing only the donor construct is subtracted from the same ratio for a sample containing the interacting acceptor and donor fusion proteins; 2) the ratio of the 520-550 nm or 520-620 nm emission over the 460-490 nm or 410-490 nm emission for a cell sample treated with vehicle is subtracted from the same ratio for a second aliquot of the same cell sample treated with ligand. In the following examples, the second calculation will be used and the signal is described as ligand-induced BRET′. Furthermore, for data shown in FIGS. 4 to 20, all data points in a given set are corrected relative to the final data point prior to agonist treatment, which is fixed to zero. In keys on FIGS. 7 to 20, “>” means “followed by after 50 minutes”, with agonists added at time zero on the x-axes.
The Receptor-Heteromer Investigation Technology (Receptor-HIT) is an assay configuration that provides insights into receptor complexes (Ayoub et al. (2015) PLoS One 10(3):e0119803). It is also known as GPCR-HIT when assessing GPCRs. It is an assay configuration whereby one receptor (eg. CXCR2) is labelled with one component (eg. Renilla luciferase variant Rluc8) of a proximity-based reporter system (eg. BRET), the complementary component of which (eg. Venus yellow fluorescent protein) is fused to a receptor interacting partner (eg. mGsi).
Referring now to FIG. 3 (published in Tiulpakov et al (2016) Mol. Endocrinol. 30, 889-904), the proximity of Rluc8-tagged receptors to Venus-tagged Kras plasma membrane marker, or Venus-tagged Rabs specific for distinct subcellular locations, is monitored in live cells and in real-time using BRET. The Rab markers are: Venus/Rab5 (5) for early endosomes; Venus/Rab4 (4) for early endosome recycling; Venus/Rab11a (11) for recycling endosomes; Venus/Rab7 (7) for late endosomes/lysosomes; Venus/Rab9 (9) for late endosome trafficking to the trans-Golgi network; Venus/Rab1 (1) for endoplasmic reticulum trafficking to the cis-Golgi; Venus/Rab6 (6) for Golgi apparatus and trans-Golgi network; or Venus/Rab8 (8) for trans-Golgi network to plasma membrane.

Angiotensin II [AngII]
proximity of AT1R/Rluc8 to Venus/Kras (BRET): marked reduction; also recorded: does not result in a notable increase
proximity of AT1R/Rluc8 to Venus/Rab1 (BRET): increase
proximity of AT1R/Rluc8 to Venus/Rab4 (BRET): increase
proximity of AT1R/Rluc8 to Venus/Rab5 (BRET): substantial increase
proximity of AT1R/Rluc8 to Venus/Rab7 (BRET): increase
proximity of AT1R/Rluc8 to Venus/Rab8 (BRET): less of an effect
proximity of AT1R/Rluc8 to Venus/Rab9 (BRET): increase
proximity of AT1R/Rluc8 to Venus/Rab11a (BRET): substantial increase
